Structures are written as SMILES. Bounds are passed on as bounds.

For orientation: EC50 means the concentration needed to bring the measured effect to its halfway point. A low value points to a more potent agent.

This test relates to TGF-b induced Endothelin-1 production. Kind of test: ET-1 assay: inhibitory effect on TGF-b induced endothelin-1 production. It counts as cell-based. The settings on record: Homo sapiens, Fibroblast; fibroblasts, stimulant (TGFb, serum, LPA etc), ET-1 in media by ELISA, 4-parameter fit. Summed up: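 Fibroblasts (primary human lung/dermal, HFL-1, 3T3) serum-starved 0-48 h, preincubated ~30 min with compound, then stimulated (TGFb, serum or LPA) for 16-48 h. Secreted ET-1 measured by ELISA; EC50 from 4-parameter logistic fit, with CC50 from ATPlite in the same wells.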
Background: An ELISA detects its analyte on a solid surface through an enzyme-linked reagent.

`CNc1cc(=O)n(-c2ccc(OC(F)(F)F)cc2)cc1-c1cnn(C)c1` [Compound 125] displayed an EC50 of over 200 µM.
The figure for `Cc1cc(=O)n(-c2ccc(OC(F)(F)F)cc2)cc1-c1ccncc1` [Compound 242] is over 200 µM.
In turn, `Cn1cc(-c2cn(-c3ccc(OC(F)(F)F)cc3)c(=O)c3c2OCC(=O)N3)cn1` [Compound 393] had a concentration giving a half-maximal response (EC50) of over 200 µM.
The molecule `Cn1cc(-c2cn(-c3ccc(OC(F)(F)F)cc3)c(=O)c3ncn(Cc4ccccc4)c23)cn1` [Compound 55] came in with an EC50 of over 200 µM.
In turn, `Cc1cc(=O)n(-c2ccc(OC(F)(F)F)cc2)cc1-c1ccc(Cl)c(Cl)c1` [Compound 197] registered an EC50 of 50 to 200 µM.
The figure for `Cn1cc(-c2cn(-c3ccc(OC(F)(F)F)cc3)c(=O)cc2OCCN2CCS(=O)(=O)CC2)cn1` [Compound 148] is over 200 µM; for `O=c1cc(OC2CCS(=O)(=O)CC2)c(-c2ccc(F)cc2)cn1-c1ccc(OC(F)(F)F)cc1` [Compound 99] it is under 50 µM.
The figure for `Cc1cc(=O)n(-c2ccc(OC(F)(F)F)cc2)cc1-c1ccc2cn(C)nc2c1` [Compound 250] is 50 to 200 µM; for `Cn1cc(-c2cn(-c3ccc(OC(F)(F)F)cc3)c(=O)c3nc[nH]c23)cn1` [Compound 57] it is over 200 µM.
`CC(C)n1cc(-c2ccc(=O)n(-c3ccccc3)c2)cn1` [Compound 388] had an EC50 of over 200 µM.
Under `CC(=O)Nc1cccc(-n2cc(-c3ccccc3)c(C)cc2=O)c1` [Compound 167] stands over 200 µM.
`O=c1ccc(C(F)(F)F)cn1-c1cncnc1` [Compound 279] registered an EC50 of over 200 µM.
Under `Cc1cc(=O)n(-c2ccc(OC(F)(F)F)cc2)cc1-c1cccc2c1OCC(=O)N2` [Compound 423] stands over 200 µM; under `Cc1cc(=O)n(-c2cccc(C(F)(F)F)c2)cc1-c1ccccc1` [Compound 163], under 50 µM; under `O=C1NC=CCN1c1ccccc1` [Compound 365], over 200 µM.
Under `CC(=O)N1CCc2c(-c3cnn(C)c3)cn(-c3ccc(OC(F)(F)F)cc3)c(=O)c21` [Compound 693] stands 50 to 200 µM; under `COc1ccc(-n2cc(C)ccc2=S)cc1` [Compound 332], over 200 µM.
Under `Cc1cc(=O)n(-c2ccc(OC(F)(F)F)cc2)cc1-c1cccnc1` [Compound 241] stands over 200 µM; under `O=c1ccc(-c2cccc(Cl)c2)cn1-c1cccc(F)c1` [Compound 320], under 50 µM; under `CC(C)n1nnc2c(-c3cnn(C)c3)cn(-c3ccc(OC(F)(F)F)cc3)c(=O)c21` [Compound 676], under 50 µM.
With `Cc1ccc2c(c1)CC(=O)N2c1ccc(OC(F)(F)F)cc1` [Compound 82], the EC50 is over 200 µM.
For `O=c1ccc(Br)cn1-c1ccc(F)cc1` [Compound 265], the EC50 was over 200 µM.
The figure for `Cn1cc(-c2cn(-c3ccc(OC(F)(F)F)cc3)c(=O)cc2Nc2ccccc2)cn1` [Compound 130] is over 200 µM; for `CCOc1ccc(-n2cc(-c3cnn(C)c3)c(NCc3ccc(C#N)cc3)cc2=O)c(C)c1` [Compound 704] it is under 50 µM.
Under `O=c1ccc(C(F)(F)F)cn1-c1ccc(NCCN2CCN(CCO)CC2)cc1Cl` [Compound 709] stands 50 to 200 µM.
The molecule `CCOc1ccc(-n2cc(-c3ccc(F)cc3)c(Cl)cc2=O)c(C)c1` [Compound 541] yielded an EC50 of over 200 µM.
The figure for `CCOc1ccc(-n2cc(-c3cnn(C)c3)c(NCc3ccc(F)cc3F)cc2=O)c(C)c1` [Compound 702] is under 50 µM; for `O=c1ccc(-c2ccccc2)cn1-c1ccc(F)cc1` [Compound 294] it is 50 to 200 µM.
The figure for `O=C1CCCN1CCOc1cc(=O)n(-c2ccc(OC(F)(F)F)cc2)cc1-c1ccc(F)cc1` [Compound 97] is over 200 µM.
`Cn1cc(-c2cn(-c3ccc(OC(F)(F)F)cc3)c(=O)cc2OC2CCS(=O)(=O)CC2)cn1` [Compound 149] displayed a 50% effective concentration (EC50) of 50 to 200 µM.
`COCCOc1ccc(-n2cc(-c3cnn(C)c3)c(C)cc2=O)cc1` [Compound 25] displayed an EC50 of over 200 µM.
Under `Cc1nc2ccn(-c3ccc(OC(F)(F)F)cc3)c(=O)c2s1` [compound 585] stands over 200 µM; under `Cc1ccc(F)c(-c2ccccc2)c1` [Compound 440], over 200 µM.
Under `Cn1cc(-c2cn(-c3ccc(Cl)cc3)c(=O)cc2Oc2ccccc2)cn1` [Compound 534] stands under 50 µM; under `CCOc1ccc(-n2cc(-c3cccc(Cl)c3)ccc2=O)c(C)c1` [Compound 321], under 50 µM; under `Cc1n[nH]c(C)c1-c1ccc(=O)n(-c2cccc(F)c2)c1` [Compound 381], over 200 µM.
The figure for `CCCNC(=O)Nc1cc(=O)n(-c2ccc(OC(F)(F)F)cc2)cc1-c1ccc(F)cc1` [Compound 115] is over 200 µM.
Turning to `Cn1cc(-c2cc(=O)n(-c3ccc(OC(F)(F)F)cc3)cc2-c2cnn(C)c2)cn1` [Compound 708], the EC50 is 50 to 200 µM.
The figure for `O=c1c2nsnc2c(-c2ccc(F)cc2)cn1-c1ccc(OC(F)(F)F)cc1` [Compound 40] is over 200 µM.
`O=c1ccc(-c2cn[nH]c2)cn1-c1cccc(F)c1` [Compound 372] returned a half-maximal effective concentration (EC50) of over 200 µM.
Under `CC(=O)Nc1cccc(-n2cc(-c3ccc(F)cc3)c(Oc3ccccc3)cc2=O)c1` [Compound 536] stands under 50 µM; under `CCOc1ccc(CNc2cc(=O)n(-c3ccc(OC(F)(F)F)cc3)cc2-c2cnn(C)c2)c(F)c1` [Compound 528], under 50 µM; under `CC(C)Oc1ccc(-n2cc(-c3ccc(F)cc3)ccc2=O)cc1` [Compound 288], 50 to 200 µM.
Under `CN1CCN(CCOc2cc(=O)n(-c3ccc(OC(F)(F)F)cc3)cc2-c2ccc(F)cc2)CC1` [Compound 100] stands under 50 µM.
Under `Cc1cc(=O)n(-c2ccc(F)c(NC(N)=O)c2)cc1-c1ccc(F)cc1` [Compound 559] stands under 50 µM; under `COc1ccc(-c2ccc(=O)n(-c3ccccc3Cl)c2)cc1` [Compound 310], 50 to 200 µM; under `CCOc1ccc(-n2cc(-c3cn[nH]c3)c3c(c2=O)CCCC3)c(C)c1` [Compound 36], under 50 µM.
In the case of `Cc1cc(=O)n(-c2ccc(Cl)cc2C)cc1-c1ccccc1` [Compound 169], the 50% effective concentration (EC50) lay in the range of 50 to 200 µM.
The figure for `O=c1ccc(C(F)(F)F)cn1-c1ccccc1Cl` [Compound 281] is over 200 µM; for `Cn1cc(-c2cn(-c3ccc(OC(F)(F)F)cc3)c(=O)cc2N2CCOCC2)cn1` [Compound 128] it is under 50 µM; for `Cn1cc(-c2cn(-c3ccc(OC(F)(F)F)cc3)c(=O)cc2OCCN2CCOCC2=O)cn1` [Compound 150] it is 50 to 200 µM.
`Cn1cc(-c2cn(-c3ccc(OC(F)(F)F)cc3)c(=O)cc2C(F)(F)F)cn1` [Compound 240] returned a half-maximal effective concentration (EC50) of over 200 µM.
The figure for `CC(C)Oc1ccc(-n2cc(Br)ccc2=O)cc1` [Compound 267] is over 200 µM; for `O=c1cc(C(F)(F)F)c(-c2ccc(F)cc2)cn1-c1ccc(OC(F)(F)F)cc1` [Compound 205] it is 50 to 200 µM.
The figure for `CCOc1ccc(-n2cc(-c3ccccc3)c(C)cc2=O)c(C)c1` [Compound 168] is 50 to 200 µM; for `CCOc1ccc(-n2cc(-c3ccc(F)cc3)c3nccnc3c2=O)c(C)c1` [Compound 62] it is over 200 µM; for `Cc1cc(=O)n(-c2ccc(C(F)(F)F)cc2C)cc1-c1ccccc1` [Compound 170] it is under 50 µM.
The figure for `O=c1ccc(-c2cn[nH]c2)cn1-c1ccc(F)cc1` [Compound 377] is 50 to 200 µM; for `Cn1cc(-c2cn(-c3ccc(OC(F)(F)F)cc3)c(=O)cc2NCc2ccc(C#N)cc2)cn1` [Compound 526] it is over 200 µM.
Molecule `CCC(=O)Nc1cc(=O)n(-c2ccc(OC(F)(F)F)cc2)cc1-c1ccc(F)cc1` [Compound 106] displayed an EC50 of over 200 µM.
As to `CC(=O)Nc1cccc(-n2cc(C(C)=O)ccc2=O)c1` [Compound 18], the EC50 is over 200 µM.
Molecule `Cn1cc(-c2cn(-c3ccc(OC(F)(F)F)cc3)c(=O)cc2NCc2ncccn2)cn1` [Compound 529] showed an EC50 of over 200 µM.
Under `Cc1ccc(=S)n(-c2cccc(F)c2)c1` [Compound 338] stands over 200 µM; under `Cc1n[nH]c(C)c1-c1ccc(=O)n(-c2ccc(OC(C)C)cc2)c1` [Compound 382], 50 to 200 µM; under `Cc1cc(-c2cnn(C)c2)cn(-c2ccc(OC(F)(F)F)cc2)c1=O` [Compound 352], 50 to 200 µM.
Under `CCOc1ccc(-n2cc(-c3ccc4scnc4c3)c(C)cc2=O)c(C)c1` [Compound 552] stands over 200 µM; under `Cn1cc(-c2cn(-c3ccc(OC(F)(F)F)cc3)c(=O)cc2O)cn1` [Compound 121], over 200 µM.
The figure for `CCn1c(=O)oc2c(-c3cn(-c4ccc(OC(F)(F)F)cc4)c(=O)cc3C)cccc21` [Compound 556] is over 200 µM; for `Cn1cc(-c2cn(-c3ccc(OC(F)(F)F)cc3)c(=O)c3c2CCCC3)cn1` [Compound 33] it is under 50 µM; for `Cc1cc(=O)n(-c2ccc(OC(F)(F)F)cc2)cc1-c1ccc2c(c1)OC(C)(C)O2` [Compound 211] it is over 200 µM.
For the molecule `COc1ccc(-n2cc(-c3cn[nH]c3)ccc2=O)cc1` [Compound 370], the EC50 is over 200 µM.
In turn, `O=c1ccc(Br)cn1-c1ccc(OC(F)(F)F)cc1` [Compound 270] returned a half-maximal effective concentration (EC50) of over 200 µM.
Under `CCOc1ccc(-n2cc(-c3cnn(C)c3)c(OC3CCOCC3)cc2=O)c(C)c1` [Compound 698] stands 50 to 200 µM.
Under `CC(=O)Nc1cccc(-n2cc(-c3cn[nH]c3)c(C)cc2=O)c1` [Compound 217] stands over 200 µM.
The figure for `O=c1c2c(c(-c3cn[nH]c3)cn1-c1ccc(OC(F)(F)F)cc1)CCCC2` [Compound 37] is 50 to 200 µM; for `Cc1cc(=O)n(-c2ccc(OC(F)(F)F)cc2)cc1-c1cnsc1` [Compound 264] it is over 200 µM; for `O=c1ccc(Br)cn1-c1ccc(Cl)cc1` [Compound 269] it is over 200 µM.

Values taken from US10233195B2, “Anti-fibrotic pyridinones” (InterMune, Inc., priority 2014, dated 2019).
